Reference: ChEMBL document CHEMBL5543174, “A Nonbactericidal Anionic Antimicrobial Peptide Provides Prophylactic and Therapeutic Efficacies against Bacterial Infections in Mice by Immunomodulatory-Antithrombotic Duality” (J Med Chem, 2024)
The source made the active and inactive calls.

Tests used:
Peritoneal macrophage [1] = experiment: Induction of chemotaxis in mouse Peritoneal macrophage assessed as upregulation of MCP-1 expression incubated for 6 hrs by ELISA; type: functional, cell-based
Peritoneal macrophage [2] = experiment: Induction of chemotaxis in mouse Peritoneal macrophage assessed as upregulation of CXCL1 gene expression incubated for 6 hrs by qPCR analysis; type: functional, cell-based
Mus musculus [3] = experiment: Inhibition of fibrin formation in mouse infected with Methicillin-resistant Staphylococcus aureus assessed as reduction in fibrin deposition in lung at 10 mg/kg,ip pre-administrated 5 hrs before bacterial infection measured after 24 hrs by immunohistochemical analysis; type: functional, organism-based; details: time 29.0 hrs
Escherichia coli [4] = experiment: Antibacterial activity against Carbapenem-resistant Escherichia coli infected in C57BL/6 mouse assessed as reduction in TNF-alpha level in peritoneal fluid at 10 mg/kg,ip administrated 5 hrs after bacterial infection measured after 24 hrs by ELISA; type: functional, organism-based; details: time 19.0 hrs
Staphylococcus aureus [5] = experiment: Antibacterial activity against Staphylococcus aureus ATCC 25923 infected in C57BL/6 mouse assessed as reduction in inflammatory injury in lung at 10 mg/kg,ip administrated 5 hrs after bacterial infection measured after 24 hrs by hematoxylin and eosin staining based analysis; type: functional, organism-based; details: time 19.0 hrs
Neutrophil [6] = experiment: Induction of chemotaxis in mouse bone marrow derived neutrophil assessed as increase in neutrophil migration at 100 ug/ml preincubated with KN62 for 30 mins followed by compound addition measured after 8 hrs by crystal violet staining based indirect transwell assay; type: functional, cell-based; details: dose 100.0 µg/ml
Staphylococcus aureus [7] = experiment: Antibacterial activity against Methicillin-resistant Staphylococcus aureus infected in C57BL/6 mouse assessed as reduction in IL-6 level in peritoneal fluid at 10 mg/kg,ip administrated 5 hrs after bacterial infection measured after 24 hrs by ELISA; type: functional, organism-based; details: time 19.0 hrs
[8] = test system: Peritoneal macrophage cell; experiment: Induction of chemotaxis in mouse Peritoneal macrophage assessed as upregulation of CXCL1 production at 100 ug/ml preincubated with MTS510 followed by compound addition by ELISA; type: functional, cell-based; details: dose 100.0 µg/ml
Staphylococcus aureus [9] = experiment: Antibacterial activity against Staphylococcus aureus ATCC 25923 infected in C57BL/6 mouse assessed as reduction in TNF-alpha level in serum at 10 mg/kg,ip pre-administrated 5 hrs before bacterial infection measured after 24 hrs by ELISA; type: functional, organism-based; details: time 29.0 hrs
Mus musculus [10] = experiment: Anticoagulation activity in mouse infected with Methicillin-resistant Staphylococcus aureus assessed as increase in plasma TFPI expression at 10 mg/kg,ip administrated 5 hrs after bacterial infection measured after 24 hrs by ELISA; type: functional, organism-based; details: time 19.0 hrs
Escherichia coli [11] = experiment: Antimicrobial activity against Carbapenem-resistant Escherichia coli assessed as reduction in microbial colony forming unit at 200 ug/ml incubated for 1 to 4 hrs by time-kill kinetics based analysis; type: functional, organism-based; details: dose 200.0 µg/ml, time 1-4 hrs
Escherichia coli [12] = experiment: Antibacterial activity against Carbapenem-resistant Escherichia coli infected in C57BL/6 mouse assessed as reduction in TNF-alpha level in serum at 10 mg/kg,ip administrated 5 hrs after bacterial infection measured after 24 hrs by ELISA; type: functional, organism-based; details: time 19.0 hrs
Peritoneal macrophage [13] = experiment: Immunoregulatory activity in mouse Peritoneal macrophage assessed as upregulation of p65 phosphorylation incubated for 1 hr by Western blotting analysis; type: functional, cell-based
Mus musculus [14] = experiment: Inhibition of fibrin formation in mouse infected with Methicillin-resistant Staphylococcus aureus assessed as reduction in fibrin deposition in lung at 10 mg/kg,ip administrated 5 hrs after bacterial infection measured after 24 hrs by immunohistochemical analysis; type: functional, organism-based; details: time 19.0 hrs
Mus musculus [15] = experiment: Anticoagulation activity in mouse infected with Methicillin-resistant Staphylococcus aureus assessed as increase in plasma AT-III expression at 10 mg/kg,ip pre-administrated 5 hrs before bacterial infection measured after 24 hrs by ELISA; type: functional, organism-based; details: time 29.0 hrs
Mus musculus [16] = experiment: Anticoagulation activity in mouse infected with Methicillin-resistant Staphylococcus aureus assessed as increase in plasma APC expression at 10 mg/kg,ip pre-administrated 5 hrs before bacterial infection measured after 24 hrs by ELISA; type: functional, organism-based; details: time 29.0 hrs
Salmonella paratyphi = experiment: Antimicrobial activity against Salmonella paratyphi ATCC 9150 assessed as inhibition of microbial growth at <= 200 ug/ml incubated for 18 hrs by micro-broth dilution method; type: functional, organism-based; details: Salmonella enterica subsp. enterica serovar Paratyphi A, dose <= 200.0 µg/ml
Staphylococcus aureus [17] = experiment: Antibacterial activity against Staphylococcus aureus ATCC 25923 infected in C57BL/6 mouse assessed as reduction in IL-6 level in serum at 10 mg/kg,ip administrated 5 hrs after bacterial infection measured after 24 hrs by ELISA; type: functional, organism-based; details: time 19.0 hrs
Escherichia coli [18] = experiment: Antibacterial activity against Carbapenem-resistant Escherichia coli infected in C57BL/6 mouse assessed as reduction in bacterial load at 10 mg/kg,ip administrated 5 hrs after bacterial infection; type: functional, organism-based
Escherichia coli [19] = experiment: Antibacterial activity against Carbapenem-resistant Escherichia coli infected in C57BL/6 mouse assessed as reduction in IL-1beta level in peritoneal fluid at 10 mg/kg,ip pre-administrated 5 hrs before bacterial infection measured after 24 hrs by ELISA; type: functional, organism-based; details: time 29.0 hrs
Klebsiella pneumoniae = experiment: Antimicrobial activity against Klebsiella pneumoniae ATCC 27736 assessed as inhibition of microbial growth at <= 200 ug/ml incubated for 18 hrs by micro-broth dilution method; type: functional, organism-based; details: dose <= 200.0 µg/ml
Escherichia coli [20] = experiment: Antibacterial activity against Escherichia coli ATCC 25922 infected in C57BL/6 mouse assessed as reduction in inflammatory injury in lung at 10 mg/kg,ip pre-administrated 5 hrs before bacterial infection measured after 24 hrs by hematoxylin and eosin staining based analysis; type: functional, organism-based; details: time 29.0 hrs
Staphylococcus aureus [21] = experiment: Antibacterial activity against Staphylococcus aureus ATCC 25923 infected in C57BL/6 mouse assessed as reduction in inflammatory injury in lung at 10 mg/kg,ip pre-administrated 5 hrs before bacterial infection measured after 24 hrs by hematoxylin and eosin staining based analysis; type: functional, organism-based; details: time 29.0 hrs
[22] = test system: Peritoneal macrophage cell; experiment: Induction of chemotaxis in mouse Peritoneal macrophage assessed as upregulation of MCP-1 production at 100 ug/ml preincubated with WRW4 followed by compound addition by ELISA; type: functional, cell-based; details: dose 100.0 µg/ml
Staphylococcus aureus [23] = experiment: Antibacterial activity against Methicillin-resistant Staphylococcus aureus infected in C57BL/6 mouse with clodronate liposome-induced monocyte depletion model assessed as reduction of bacterial burden in peritoneal cavity at 10 mg/kg,ip pre-administrated 5 hrs before bacterial infection measured after 24 hrs; type: functional, organism-based; details: time 29.0 hrs
Mus musculus [24] = experiment: Antithrombotic activity in C57BL/6 mouse tail transection model assessed as increase in tail bleeding time at 30 mg/kg,SC administration; type: functional, organism-based
Neutrophil [25] = experiment: Induction of degranulation in mouse bone marrow derived neutrophil assessed as increase in BPI release at 25 to 100 ug/ml incubated for 6 hrs by ELISA; type: functional, cell-based; details: dose 25-100 µg/ml
Staphylococcus aureus [26] = experiment: Antibacterial activity against Staphylococcus aureus ATCC 25923 infected in C57BL/6 mouse assessed as reduction in IL-6 level in serum at 10 mg/kg,ip pre-administrated 5 hrs before bacterial infection measured after 24 hrs by ELISA; type: functional, organism-based; details: time 29.0 hrs
Pseudomonas aeruginosa = experiment: Antimicrobial activity against Pseudomonas aeruginosa ATCC 27853 assessed as inhibition of microbial growth at <= 200 ug/ml incubated for 18 hrs by micro-broth dilution method; type: functional, organism-based; details: dose <= 200.0 µg/ml
Escherichia coli [27] = experiment: Antibacterial activity against Escherichia coli ATCC 25922 infected in C57BL/6 mouse assessed as reduction in TNF-alpha level in peritoneal fluid at 10 mg/kg,ip administrated 5 hrs after bacterial infection measured after 24 hrs by ELISA; type: functional, organism-based; details: time 19.0 hrs
Escherichia coli [28] = experiment: Antimicrobial activity against Carbapenem-resistant Escherichia coli assessed as inhibition of microbial growth at <= 200 ug/ml incubated for 18 hrs by micro-broth dilution method; type: functional, organism-based; details: dose <= 200.0 µg/ml

CC[C@H](C)[C@H](NC(=O)[C@@H]1CSSC[C@H](NC(=O)[C@H](CCC(=O)O)NC(=O)[C@@H](NC(=O)[C@H](CCCCN)NC(=O)[C@H](Cc2c[nH]cn2)NC(=O)[C@@H](NC(=O)[C@H](CCCCN)NC(=O)[C@H](CCC(=O)O)NC(=O)[C@H](C)NC(=O)[C@H](CCC(=O)O)NC(=O)[C@H](CCC(=O)O)NC(=O)[C@H](CCC(=O)O)NC(=O)[C@H](C)N)[C@@H](C)O)[C@@H](C)O)C(=O)N[C@@H](CC(C)C)C(=O)N[C@@H](CCC(=O)O)C(=O)N1)C(=O)N[C@@H](Cc1ccccc1)C(=O)N[C@H](C(=O)N[C@@H](CC(C)C)C(=O)N[C@@H](CC(C)C)C(=O)N1CCC[C@H]1C(=O)N1CCC[C@@H]1C(=O)N[C@H](C)C(=O)O)[C@@H](C)O
active: Activity (Peritoneal macrophage [1]) Dose-Dependent Effect | Activity (Peritoneal macrophage [2]) Dose-Dependent Effect | inhibition (Mus musculus [3]) | Activity (Escherichia coli [4]) | Activity (Staphylococcus aureus [5]) | Activity (Neutrophil [6]) | Activity (Staphylococcus aureus [7]) | Activity [8] | Activity (Staphylococcus aureus [9]) | Activity (Mus musculus [10]) | Activity (Escherichia coli [12]) | Activity (Peritoneal macrophage [13]) Dose-Dependent Effect | inhibition (Mus musculus [14]) | Activity (Mus musculus [15]) | Activity (Mus musculus [16]) | Activity (Staphylococcus aureus [17]) | Activity (Escherichia coli [18]) | Activity (Escherichia coli [19]) | Activity (Escherichia coli [20]) | Activity (Staphylococcus aureus [21]) | Activity [22] | Activity (Neutrophil [25]) | Activity (Staphylococcus aureus [26]) | Activity (Escherichia coli [27])
inactive: Activity (Escherichia coli [11]) | Activity (Salmonella paratyphi) | Activity (Klebsiella pneumoniae) | Activity (Staphylococcus aureus [23]) | Activity (Mus musculus [24]) | Activity (Pseudomonas aeruginosa) | Activity (Escherichia coli [28])
